Measured values published in patent publication US20120177601A1, “TREATMENT OF HEPATITIS C VIRUS INFECTIONS” (THE USA AS REPRESENTED BY THE SECRETARY OF THE DEPARTMENT …, priority 2009, published 2012).
Several values for one entry are separate records, joined by “and”; a condition that tells them apart may be missing. Equal entries are not always repeated. Structures can show the parent of a compound that is named as a salt. Where two headings read alike, the source gives them in different places.

Tests used:
[1] = system: Huh7.5FL replicon (full length Con1); test: HCV replication in full-length (FL) replicon cells, real-time RT-PCR (ΔCT); format: cell-based; details: FL replicon, 48 hr
Source text: (§1) Cell lines and cell culture. The human hepatoma cell line (Huh5-15) with replicating sub-genomic HCV RNA (Lohmann et al., 1999) was a kind gift of Dr. Volker Lohmann (Institute for Virology, Johannes-Gutenberg University, Mainz, Germany), and cultivated as described (Zhu et al., 2008). Huh7.5 cells harboring full length (Huh7.5FL) Conl replicons (Blight et al., 2002) were a kind gift of Dr. Charles Rice (Rockefeller University, New York, N.Y.). These cells were passed as recommended by their laboratory of origin (Blight et al., 2002). An infectious clone of HCV, J6/JFH, was inoculated into Huh7.5 cells and the cultures passed as previously described (Lindenbach et al., 2005). Cells were incubated with BV, BR, or FeCl2 for 24-48 h in DMEM containing 5% FBS.
(§2) Quantitative Real-time RT-PCR. Total RNA was extracted from cells using Trizol reagent (Invitrogen, Carlsbad, Calif.), treated with Turbo RNase free DNase (Ambion, TX), and processed as described (Zhu et al., 2008). To assess replication, the primers and probe designed by Takeuchi et al. (1999) targeting sequences located in 5′UTR (nt130-290) were employed as described for each replicon line (Blight et al., 2002; Lohmann et al., 2003). Real-time RT-PCR was performed using Taq DNA polymerase with the TaqMan Universal PCR Master Mix Protocol (Perkin Elmer Applied Biosystems, Foster City, Calif.). Quantitation was performed using the comparative cycle threshold (ΔCT) method as described previously (Abdalla et al., 2004).

[2] = system: J6/JFH infectious HCV in Huh7.5 cells; test: J6/JFH HCV infection of Huh7.5 cells (immunostaining, HCV RNA); format: cell-based; details: BV 20-200 μM, 72 hr; HCV polyvalent sera immunoreactivity and HCV RNA
Source text: as §1, with “Cells were incubated with BV, BR, or FeCl2 for 24-48 h in DMEM containing 5% FBS.” left out
Quantitative Real-time RT-PCR. Total RNA was extracted from cells using Trizol reagent (Invitrogen, Carlsbad, Calif.), treated with Turbo RNase free DNase (Ambion, TX), and processed as described (Zhu et al., 2008). […] Quantitation was performed using the comparative cycle threshold (ΔCT) method as described previously (Abdalla et al., 2004).
Immunocytochemical staining. […] Antibody binding was evaluated following labeling with anti-human secondary antibody-alkaline phosphatase conjugate and results recorded by photomicroscopy.

[3] = biological target: T1, HCV NS3/4A recombinant protease (UniProt O92972); format: biochemical; details: for Ki: recombinant NS3/4A, Lineweaver-Burk
T1 construct: other: recombinant protease, 591 nm/622 nm FRET peptide, regression analysis; other: recombinant NS3/4A, Lineweaver-Burk; other: BV versus BR; effect o; fused on or other part: By knowledge of the vendor's product, the NS4A cofactor segment of the same polyprotein is fused to the N-terminus of the NS3 protease domain
Description: In vitro assay of HCV NS3/4A recombinant protease. Protease activity was determined fluorometrically with the SensoLyte 620 HCV Protease Assay (AnaSpec, Fremont, Calif.) using a wide wavelength excitation/emission (591 nm/622 nm respectively) fluorescence energy transfer peptide according to the manufacturer's instructions. Control incubations with BV or metabolite only were performed to eliminate or correct for autofluorescence or quenching. A competitive inhibitor of the NS3/4A protease, AnaSpec #25346, was used as positive control.

[4] = system: replicon or parental cell lines (Huh7.5); test: Cytotoxicity, MTT assay; format: cell-based, human; details: 20-200 μM BV
Description: Cytotoxicity assay. Cytotoxicity was assessed using the MTT assay as detailed previously (Wen et al., 2008). Cells (1×10^4 per well) were seeded in 96-well culture plates and allowed to attach overnight. […]

[5] = system: HCV RNA in NS and FL replicons after BVR siRNA; format: cell-based; details: BV 20 μM or BR 100 μM overnight, both replicon lines, vs scrambled RNA
Description: as §2
Biliverdin reductase (BVR) knockdown. Biliverdin reductase (BVR) siRNA and control (scrambled) siRNA were purchased from Santa Cruz Biotechnology (sc-44650 and sc-37007). BVR knockdown was performed as described previously (Ryter et al., 2007). Efficiency of the knockdown was monitored by semiquantitative densitometry of BVR WB.

[6] = system: HCV replication in FL and NS replicons; test: BV with α-interferon, HCV replication in replicons; format: cell-based; details: 50 or 100 μM BV overnight with α-interferon
Description: FL (FIG. 7A) or NS (FIG. 7B) replicons were treated with indicated amounts of α-interferon alone or in the presence of 50 or 100 μM BV overnight. HCV replication was determined by real-time RT-PCR using the comparative cycle threshold (ΔCT) method. (*) p<0.01 vs. control; (#) p<0.005 vs. control.
as §2

HIV-1 protease = HIV-1 protease (Human immunodeficiency virus type 1 group M subtype B, UniProt P04585); details: McPhee et al. 1996; cited from earlier work
vascular injury = details: rats, 50 mg/kg; cited from earlier work
LPS induced septic shock = details: rats, 35 mg/kg; cited from earlier work
[7] = in vivo; cited from earlier work

T1 sequence (O92972 1027-1657): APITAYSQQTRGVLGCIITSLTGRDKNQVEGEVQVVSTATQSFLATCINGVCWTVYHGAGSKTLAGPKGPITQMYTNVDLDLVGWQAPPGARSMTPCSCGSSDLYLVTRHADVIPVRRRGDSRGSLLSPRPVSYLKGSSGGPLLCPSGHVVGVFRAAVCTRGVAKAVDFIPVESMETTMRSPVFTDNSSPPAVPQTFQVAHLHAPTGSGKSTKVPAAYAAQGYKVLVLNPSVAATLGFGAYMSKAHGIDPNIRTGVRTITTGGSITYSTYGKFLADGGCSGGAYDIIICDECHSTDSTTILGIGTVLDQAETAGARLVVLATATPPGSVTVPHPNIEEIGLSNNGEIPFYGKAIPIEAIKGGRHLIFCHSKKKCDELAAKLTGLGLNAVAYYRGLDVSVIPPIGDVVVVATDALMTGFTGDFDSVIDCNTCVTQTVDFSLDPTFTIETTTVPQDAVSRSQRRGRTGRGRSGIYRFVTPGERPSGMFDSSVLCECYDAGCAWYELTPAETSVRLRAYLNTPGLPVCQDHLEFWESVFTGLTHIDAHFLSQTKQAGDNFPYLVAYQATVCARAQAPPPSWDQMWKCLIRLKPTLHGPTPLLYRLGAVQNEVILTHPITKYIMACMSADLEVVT

C=CC1=C(C)/C(=C/C2=NC(=C\c3[nH]c(/C=C4\NC(=O)C(C)=C4C=C)c(C)c3CCC(=O)O)/C(CCC(=O)O)=C2C)NC1=O [Biliverdin, biliverdin-IX-α hydrochloride]
concentration showing significant antiviral activity / required to suppress HCV replication [1]: 20 µM
Huh7.5 cell infection with J6/JFH [2]: markedly decreased
difference in IC50 of BV and BR for the NS3/4a protease ([3]; BV versus BR): at least 10 fold
mode of inhibition of NS3/4A protease ([3]; Lineweaver-Burk and secondary plots): both noncompetitive and competitive inhibitor activity
effect of BV together with #25346 on protease activity ([3]; both BV and #25346 present): additive effect
IC50 ([3]; read-out: IC50, inhibition of HCV NS3/4A protease, recombinant protease, 591 nm/622 nm FRET peptide, regression analysis, listed as BV, hydrochloride): 9300 nM and 9000 nM
Ki ([3]; read-out: Ki (competitive), secondary plot Km/V vs [BV]): 600 nM
Ki ([3]; read-out: Ki′ (noncompetitive), secondary plot 1/Vap vs [BV]): 1100 nM
toxicity (MTT) with FBS ([4]; inclusion of 3-5% FBS, data not shown): toxicity was eliminated
toxicity (MTT) ([4]; serum-free culture medium, 24-48 hr): 15%
effect of BVR knockdown on antiviral activity (HCV RNA) [5]: significantly enhanced
effect of BV on α-interferon antiviral activity [6]: clear additive effect
Ki (HIV-1 protease): 1000 nM
vascular injury (vascular injury): prevented vascular injury
LPS induced septic shock (LPS induced septic shock): protected rats against LPS induced septic shock
oral bioavailability [7]: relatively poor oral bioavailability
